# From patent US20140243422A1, “METHODS OF TREATING BEHAVIORAL AND PSYCHIATRIC DISORDERS” (ELAN PHARMACEUTICALS, INC., priority 2011, published 2014)
# System: patients with mild to moderate AD (MMSE 16-26)
# Assay: Phase 2 trial: Neuropsychiatric Inventory (NPI-12) scores, cluster scores and emergence of new NPS
# Type: in vivo, human
# From the text: Several scales have been used for the assessment of BPSD. These include scales that have been specifically designed for studying NPS in patients with dementia, such as the “Behavioral Pathology in AD Rating Scale” (BEHAVE-AD, Reisberg et al. BEHAVE-AD: A clinical rating scale for the assessment of pharmacologically remediable behavioral symptomatology in Alzheimer's disease. In: Altman H J, editor. Alzheimer's Disease: Problems, prospects, and perspectives. Plenum; New York: 1987. pp. 1-161996), CERAD behavior rating scale for dementia (BRSD, Tariot 1996, International Psychogeriatrics, 8(Suppl. 3):317-320), and the Neuropsychiatric Inventory (NPI, Cummings et al. 1994, Neurology. 1994; 44:2308-14). The NPI which was designed to evaluate the broad range of behavioral symptoms that may develop in dementia patients, is a well validated instrument and has been widely used in BPSD studies and in AD treatment trials. The original version assessed 10 symptoms or items, including: delusions, hallucinations, agitation/aggression, depression/dysphoria, anxiety, apathy, irritability, euphoria/elation, disinhibition, and aberrant motor behavior; and was subsequently updated to include appetite changes and nighttime behaviors (sleep disturbances). The NPI is administered by a trained individual as a structured interview with the patient's caregiver. Each item is assessed by a scripted screening question, and the frequency and severity of each item is scored from 0-4 (0: absent, 1: occasional or less than once per week to 4 occurs at least daily), and from 1-3 (1: mild or produces little distress in patient; 2: moderate or more disturbing to patient but can be re-directed by caregiver; and 3: severe or very disturbing to patient and difficult to re-direct). The total item-score is then derived from frequency multiplied by the severity score; and the total NPI score (NPI-T) is derived from addition of all item scores, with the range of scores being from 0 (no NPS at all) to 144 (all 12 NPS are present at maximum severity at daily basis). In the majority of the drug trials in Mild/Moderate AD, the mean total NPI scores are ˜10-12 at baseline. The Phase 2 study described in the example below utilized the NPI-12 item assessment; and the mean total NPI scores were between 8 and 10 at baseline. This baseline severity is slightly lower than the range reported in many Mild to Moderate AD trials reported in the literature.
# In a Phase 2, parallel arm, dose-ranging, placebo-controlled, double-blind, multicenter trial in patients with mild to moderate AD (MMSE 16-26), scyllo-inositol was administered to study subjects in immediate release tablets twice daily at the dosage level set for each study arm or identical-appearing placebo tablets were administered in the control arm. […] The study included neuropsychological assessments using the NPI-12 item scale, as well as assessments of scyllo-Inositol (SI) and myo-inositol (MI) brain levels using magnetic resonance spectroscopy (MRS).
# The present study was a dose ranging study in Mild and Moderate AD patients (defined as having MMSE scores of 16-26 inclusive), and included 3 doses of scyllo-insoitol given bid (250 mg, 1000 mg, and 2000 mg) and placebo. The study was of 78 weeks duration and enrolled a total of 353 patients, and 351 received study drug (safety population). Due to safety findings in the 2 highest dose groups, these 2 groups were discontinued and the study's final efficacy analysis was based only on the 250 mg and placebo groups. […] In the overall study population, total randomized to all 4 dose groups=353, total that received study drug=351 (safety population, at any dose). For placebo and 250 mg group, the overall m-ITT (modified intent-to-treat)=166, overall PPS (per protocol set)=96.
# A potentially disease-modifying drug, by altering regional neuronal dysfunction, may prevent or delay the emergence of abnormal behaviors as quantified by the NPI outcomes. […]
# [1] = 250 mg bid vs placebo, Mild AD, m-ITT
structure (smiles),measurement,setting,value
O[C@H]1[C@H](O)[C@@H](O)[C@H](O)[C@@H](O)[C@@H]1O [scyllo-inositol],"Score Difference (Summary Statistics), Affective Syndrome (6 symptoms)","250 mg bid vs placebo, Mild AD MMSE 22-26, m-ITT",+3.47
same,"Score Difference (MMRM), Affective Syndrome (Depression, Anxiety, Agitation, Nighttime Behavior, Appetite Changes, Apathy)","250 mg bid vs placebo, Mild AD MMSE 22-26, m-ITT, factor-analysis cluster",+1.36
same,"Score Difference (MMRM), Apathy",[1],−0.35
same,"Score Difference (MMRM), Behavioral cluster: Aberrant Motor/Nighttime Behaviors",[1],+0.05
same,"Score Difference (MMRM), Frontal cluster: Elation and Disinhibition",[1],+0.33
same,"Score Difference (MMRM), Psychotic cluster: Delusions and Hallucinations",[1],−0.29
same,"Score Difference (MMRM), Affective: Depression and Anxiety","250 mg bid vs placebo, Moderate AD MMSE 16-21, m-ITT",+0.94
same,"improvement of Affective Syndrome score change compared to placebo group, by MMRM","250 mg bid, Mild AD MMSE 22-26",35%
same,"improvement of Affective Syndrome score change compared to placebo group, by summary statistics","250 mg bid, Mild AD MMSE 22-26",91%
same,NPI total score benefit compared to placebo,"250 mg bid, Mild MMSE 22-26, m-ITT, 78 weeks",44%
same,NPI total score numerical difference from placebo,"250 mg bid, Mild MMSE 22-26, m-ITT, 78 weeks, not statistically significant",~2 points
same,"proportion of patients who developed at least 2 new symptoms, lower versus placebo","250 mg bid, Mild m-ITT MMSE 22-26, over 78 weeks, p<0.05",21.5%
same,NPI total score improvement versus placebo,"250 mg bid, Moderate MMSE 16-21, PP analysis",~50%
same,"NPI total score, better than placebo","250 mg bid, Moderate MMSE 16-21, PP analysis, 78 weeks, not statistically significant",~4 points
same,NPI total score versus placebo,"250 mg bid, Moderate MMSE 16-21, m-ITT analysis",did not show significant differences from placebo
same,"proportion of patients who developed at least 2 new symptoms, lower versus placebo","250 mg bid, Moderate m-ITT MMSE 16-21, over 78 weeks, p=0.33",12.4%
same,"proportion of patients who developed at least 4 new symptoms, lower versus placebo","250 mg bid, Moderate m-ITT MMSE 16-21, over 78 weeks, p=0.34",12.1%
same,"increase in prevalence of irritability, baseline to end of study","250 mg group, Mild, week 78",10%
same,"prevalence of apathy, anxiety, agitation, appetite and sleep change, baseline to end of study","250 mg group, Mild, week 78",remained stable
same,"emergence of depression, anxiety, appetite change, agitation and apathy at any time during the study","250 mg, Mild MMSE 22-26",decreases the emergence
same,emergence of NPS at any time during the study,"250 mg, Moderate MMSE 16-21",decreased emergence of most NPS
same,emergence of irritability,"250 mg, Moderate MMSE 16-21",more prevalent with treatment
same,"Score Difference (MMRM), Affective: Depression and Anxiety","Moderate AD, PPS",+1.07
same,"Score Difference (MMRM), Apathy","Moderate AD, PPS",+0.14
same,"Score Difference (MMRM), Behavioral: Aberrant Motor, Nighttime Behaviors","Moderate AD, PPS",+1.42
same,"Score Difference (MMRM), Frontal: Elation and Disinhibition","Moderate AD, PPS",+0.68
same,"Score Difference (MMRM), Psychotic: Delusions and Hallucinations","Moderate AD, PPS",+1.32
same,"Score Difference (summary statistics), Affective: Depression and Anxiety","Moderate AD, PPS",+0.06
same,"Score Difference (summary statistics), Apathy","Moderate AD, PPS",+0.68
same,"Score Difference (summary statistics), Behavioral: Aberrant Motor, Nighttime Behaviors","Moderate AD, PPS",+1.96
same,"Score Difference (summary statistics), Frontal: Elation and Disinhibition","Moderate AD, PPS",+0.53
same,"Score Difference (summary statistics), Psychotic: Delusions and Hallucinations","Moderate AD, PPS",+0.71
same,"Score Difference (MMRM), Apathy","Moderate AD, m-ITT",+0.97
same,"Score Difference (MMRM), Behavioral: Aberrant Motor, Nighttime Behaviors","Moderate AD, m-ITT",+0.11
same,"Score Difference (MMRM), Frontal: Elation and Disinhibition","Moderate AD, m-ITT",+0.56
same,"Score Difference (MMRM), Psychotic: Delusions and Hallucinations","Moderate AD, m-ITT",−0.52
same,"Score Difference (summary statistics), Affective: Depression and Anxiety","Moderate AD, m-ITT",−0.15
same,"Score Difference (summary statistics), Apathy","Moderate AD, m-ITT",+1.09
same,"Score Difference (summary statistics), Behavioral: Aberrant Motor, Nighttime Behaviors","Moderate AD, m-ITT",+1.76
same,"Score Difference (summary statistics), Frontal: Elation and Disinhibition","Moderate AD, m-ITT",+0.48
same,"Score Difference (summary statistics), Psychotic: Delusions and Hallucinations","Moderate AD, m-ITT",+0.34
same,emergence of depression and/or anxiety by plasma AUC quartile,plasma AUC corresponding to the 250 mg bid dose (second quartile),significant decrease
